Earlier results on 3 molecules are cited in patent publication US20190029235A1, “EFFICIENT, SCALABLE PATIENT-DERIVED XENOGRAFT SYSTEM BASED ON A CHICK CHORIOALLANTOIC MEMBRANE (CAM) IN VIVO MODEL” (Baylor College of Medicine, priority 2015, published 2019).

In data set [1] the test system is BCM-6257 breast cancer PDX line. Particulars: PDX line BCM-6257, tumor source Pre-treat Bx, mouse-based breast cancer PDX.
In data set [2] the test system is BCM-4013 breast cancer PDX line. Particulars: PDX line BCM-4013, tumor source Pre-treat Bx, mouse-based breast cancer PDX.
Data set [3] has as its system BCM-2147 breast cancer PDX line. Particulars: PDX line BCM-2147, tumor source Pre-treat Bx, mouse-based breast cancer PDX.

With `CC(=O)O[C@@]12CO[C@@H]1C[C@H](O)[C@@]1(C)C(=O)[C@H](O)C3=C(C)[C@@H](OC(=O)[C@H](O)[C@@H](NC(=O)OC(C)(C)C)c4ccccc4)C[C@@](O)([C@@H](OC(=O)c4ccccc4)[C@H]21)C3(C)C` [Docetaxel, docetaxel], the entries for the “Treatment Response” value in data set [1], in data set [2] and in data set [3] were “Sensitive”, “Resistant” and “Resistant”, respectively.
For `N.N.O=C([O-])C1(C(=O)[O-])CCC1.[Pt+2]` [Carboplatin, carboplatin], the entries for the “Treatment Response” value in data set [1], in data set [2] and in data set [3] were “Sensitive”, “Resistant” and “Sensitive”, respectively.
In the case of `COc1cccc2c1C(=O)c1c(O)c3c(c(O)c1C2=O)C[C@@](O)(C(=O)CO)C[C@@H]3O[C@H]1C[C@H](N)[C@H](O)[C@H](C)O1` [Doxorubicin, doxorubicin], the “Treatment Response” value in data set [1], in data set [2] and in data set [3] was “Resistant” in each case.
